Measured values: patent US20140094486A1, “SOLID STATE FORMS OF HIV INHIBITOR” (Gilead Sciences, Inc., priority 2011, published 2014)

How the values were obtained:
Assay type in all cases: physicochemical
solubility = experiment: solubility
[1] = intrinsic dissolution rate; conditions: pH 2.0 buffer
[2] = moisture sorption/desorption measurements; conditions: based on moisture sorption/desorption measurements
[3] = physical and chemical stability under stress conditions

With `Cc1nc2ccccc2c(-c2ccc3c4c(ccnc24)CCO3)c1[C@H](OC(C)(C)C)C(=O)O` (atropisomer, axis not shown) [Type A] as the compound, how does the solubility (solubility; pH 2, simulated gastric fluid) read?
The solubility was greater than 24 mg/mL.

What about the solubility (solubility; pH 4.5, aqueous buffer) of the same compound?
The solubility was greater than 24 mg/mL.

What about the solubility (solubility; pH 6.8, aqueous buffer) of the same compound?
The solubility was greater than 24 mg/mL.

And the intrinsic dissolution rate [1]?
The intrinsic dissolution rate was 4528 μg/[cm^2×min].

And the hygroscopicity [2]?
The hygroscopicity was “non-hygroscopic”.

What about the “physical and chemical stability” value [3] of the same compound?
Its value is “exhibits physical and chemical stability”.
